Test results: patent US9884841B2, “Small molecule inhibitors of Mcl-1 and uses thereof” (The Regents of the University of Michigan, priority 2015, dated 2018)

molecular target: Mcl-1 (Homo sapiens, UniProt Q07820); experiment: FP based binding assay to Mcl-1 (Bid BH3 peptide probe); details: not given
Sequence (Q07820 whole entry): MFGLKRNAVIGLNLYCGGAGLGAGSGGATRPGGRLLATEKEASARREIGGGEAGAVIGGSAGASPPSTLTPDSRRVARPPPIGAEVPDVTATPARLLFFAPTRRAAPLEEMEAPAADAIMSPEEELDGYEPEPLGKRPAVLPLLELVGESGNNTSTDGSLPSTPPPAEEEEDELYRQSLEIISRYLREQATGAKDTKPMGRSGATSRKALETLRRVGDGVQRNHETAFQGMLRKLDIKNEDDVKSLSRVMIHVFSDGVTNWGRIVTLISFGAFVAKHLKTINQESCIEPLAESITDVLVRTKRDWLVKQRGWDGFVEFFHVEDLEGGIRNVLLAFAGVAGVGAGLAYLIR

| Mcl-1 binding, in words | SMILES |
| --- | --- |
| deleterious | O=C(O)c1ccccc1NS(=O)(=O)N1CCN(c2ccccc2)CC1 [Compound 460, 2-(1-phenylpiperazine-4-sulfonamido)benzoic acid] |

same assay, conditions: Binding affinity of Mcl-1 inhibitors using FP based assay, Table 1

| SMILES | Ki [nM] |
| --- | --- |
| O=C(O)c1cc(SCCc2ccccc2)ccc1NS(=O)(=O)c1ccccc1Br [Compound 386, 2-(2-bromophenylsulfonamido)-5-(phenethylthio)benzoic acid] | 381 ± 66 |
| O=C(O)c1cc(SCc2ccccc2)ccc1NS(=O)(=O)c1ccccc1 [Compound 392, 5-(Benzylthio)-2-(phenylsulfonamido)benzoic acid] | 993 ± 178 |
| O=C(O)c1cc(SCCc2ccccc2)ccc1NS(=O)(=O)N1CCN(c2ccccc2)CC1 [Compound 396, 5-(Phenethylthio)-2-(1-phenylpiperazine-4-sulfonamido)benzoic acid] | 200 ± 30 |
| O=C(O)c1cc(SCCc2ccccc2)ccc1NS(=O)(=O)Cc1ccc(Cl)cc1 [Compound 398] | 241 ± 89 |
| O=C(O)c1cc(NCCc2ccccc2)ccc1NS(=O)(=O)c1ccccc1 [Compound 404, 5-(phenethylamino)-2-(phenylsulfonamido)benzoic acid] | 5740 ± 749 |
| Nc1ccc(SCCc2ccccc2)cc1C(=O)O [Compound 416, 2-Amino-5-(phenethylthio)benzoic acid] | 1450 ± 132 |
| O=C(O)c1cc(SCCc2ccccc2)ccc1NS(=O)(=O)c1ccc(C2CCCCC2)cc1 [Compound 418, 2-(4-cyclohexylphenylsulfonamido)-5-(phenethylthio)benzoic acid] | 31 ± 10 |
| O=C(CCSc1ccc(NS(=O)(=O)N2CCN(c3ccccc3)CC2)c(C(=O)O)c1)Nc1ccccc1 [Compound 429] | 2240 ± 431 |
| CC(C)(C)c1ccc(N2CCN(S(=O)(=O)Nc3ccc(SCCC(=O)Nc4ccccc4)cc3C(=O)O)CC2)cc1 [Compound 435] | 245 ± 48 |
| O=C(O)c1ccccc1NS(=O)(=O)N1CCN(c2ccccc2)CC1 [Compound 460, 2-(1-phenylpiperazine-4-sulfonamido)benzoic acid] | > 2000 |
| O=C(O)c1cc(-c2ccccc2COc2cccc(C(F)(F)F)c2)ccc1NS(=O)(=O)c1ccc2ccccc2c1 [Compound 468, 4-(naphthalene-2-sulfonamido)-2′-((3-(trifluoromethyl)phenoxy)methyl)-[1,1′-biphenyl]-3-carboxylic acid] | 50 ± 11 |
| O=C(O)c1cc(-c2ccc(COc3cccc(C(F)(F)F)c3)cc2)ccc1NS(=O)(=O)c1ccc2ccccc2c1 [Compound 471, 4-(naphthalene-2-sulfonamido)-4′-((3-(trifluoromethyl)phenoxy)methyl)-[1,1′-biphenyl]-3-carboxylic acid] | 36 ± 6 |
| CC(C)c1cc(NS(=O)(=O)c2ccc3ccccc3c2)c(C(=O)O)cc1-c1ccc(COc2cccc(C(F)(F)F)c2)cc1 [Compound 474, 6-isopropyl-4-(naphthalene-2-sulfonamido)-4′-((3-(trifluoromethyl)phenoxy)methyl)-[1,1′-biphenyl]-3-carboxylic acid] | 23 ± 3 |
| CC(C)c1cc(NS(=O)(=O)c2ccc(Oc3ccccc3)cc2)c(C(=O)O)cc1SCCc1ccccc1 [Compound 476, 4-isopropyl-5-(phenethylthio)-2-(4-phenoxyphenylsulfonamido)benzoic acid] | 35 ± 13 |

The next lines start with the values.

| Ki [nM] | SMILES |
| --- | --- |
| 891 ± 185 | O=C(Nc1ccc(SCCc2ccccc2)cc1C(=O)O)c1ccccc1 [Compound 364, 2-Benzamido-5-(phenethylthio)benzoic acid] |
| 44 ± 14 | O=C(O)c1cc(SCCc2ccccc2)ccc1NS(=O)(=O)c1ccc(Oc2ccccc2)cc1 [Compound 376, 5-(Phenethylthio)-2-(4-phenoxyphenylsulfonamido)benzoic acid] |
| 48 ± 12 | O=C(O)c1cc(SCCc2ccccc2)ccc1NS(=O)(=O)c1ccc(-c2ccccc2)cc1 [Compound 378, 2-([1,1′-biphenyl]-4-ylsulfonamido)-5-(phenethylthio)benzoic acid] |
| > 2000 | O=C(CSc1ccc(NS(=O)(=O)c2ccccc2)c(C(=O)O)c1)Nc1ccccc1 [Compound 395] |
| 233 ± 21 | O=C(CCSc1ccc(NS(=O)(=O)c2ccccc2)c(C(=O)O)c1)Nc1ccccc1 [Compound 410] |
| 275 ± 21 | O=C(O)c1cc(SCCc2ccccc2)ccc1NS(=O)(=O)N1CCN(Cc2ccccc2)CC1 [Compound 414, 2-(1-benzylpiperazine-4-sulfonamido)-5-(phenethylthio)benzoic acid] |
| 343 ± 33 | O=C(O)c1cc(SCCc2ccccc2)ccc1NS(=O)(=O)CCc1ccccc1 [Compound 443, 5-(phenethylthio)-2-(2-phenylethylsulfonamido)benzoic acid] |
| > 2000 | O=C(O)c1ccccc1NS(=O)(=O)c1ccc2ccccc2c1 [Compound 453, 2-(naphthalene-2-sulfonamido)benzoic acid] |
| 874 ± 246 | O=C(CCc1ccccc1)Nc1ccc(SCCc2ccccc2)cc1C(=O)O [Compound 454, 5-(phenethylthio)-2-(3-phenylpropanamido)benzoic acid] |
| > 2000 | O=C(O)c1ccccc1NS(=O)(=O)c1ccccc1 [Compound 455, 2-(phenylsulfonamido)benzoic acid] |
| 387 ± 138 | O=C(O)c1cc(SCc2ccccc2)ccc1NS(=O)(=O)N1CCN(c2ccccc2)CC1 [Compound 456, 5-(benzylthio)-2-(1-phenylpiperazine-4-sulfonamido)benzoic acid] |
| 79 ± 25 | O=C(O)c1cc(SCCc2ccccc2)ccc1NS(=O)(=O)c1ccccc1-c1ccccc1 [Compound 458, 2-([1,1′-biphenyl]-2-ylsulfonamido)-5-(phenethylthio)benzoic acid] |
| 94 ± 17 | CCCc1ccc(-c2ccc(NS(=O)(=O)c3ccc4ccccc4c3)c(C(=O)O)c2)cc1 [Compound 466, 4-(naphthalene-2-sulfonamido)-4′-propyl-[1,1′-biphenyl]-3-carboxylic acid] |
| 1160 ± 196 | Nc1ccc(-c2ccccc2COc2cccc(C(F)(F)F)c2)cc1C(=O)O [Compound 467, 4-amino-2′-((3-(trifluoromethyl)phenoxy)methyl)-[1,1′-biphenyl]-3-carboxylic acid] |
| 2360 ± 80 | Nc1ccc(-c2ccc(COc3cccc(C(F)(F)F)c3)cc2)cc1C(=O)O [Compound 469, 4-amino-4′-((3-(trifluoromethyl)phenoxy)methyl)-[1,1′-biphenyl]-3-carboxylic acid] |
| 31 ± 9 | O=C(O)c1cc(-c2ccccc2COc2cccc3ccccc23)ccc1NS(=O)(=O)c1ccc2ccccc2c1 [Compound 473, 2′-((naphthalen-1-yloxy)methyl)-4-(naphthalene-2-sulfonamido)-[1,1′-biphenyl]-3-carboxylic acid] |
| 13 ± 3 | CC(C)c1cc(NS(=O)(=O)c2ccc(Oc3ccccc3)cc2)c(C(=O)O)cc1-c1ccc(COc2cccc(C(F)(F)F)c2)cc1 [Compound 477, 6-isopropyl-4-(4-phenoxyphenylsulfonamido)-4′-((3-(trifluoromethyl)phenoxy)methyl)-[1,1′-biphenyl]-3-carboxylic acid] |

same assay, conditions: R1 optimisation starting from 368

| improvement of binding potency [fold] | SMILES |
| --- | --- |
| 16 | O=C(O)c1cc(SCCc2ccccc2)ccc1NS(=O)(=O)c1ccc(-c2ccc(Cl)cc2)cc1 [Compound 380, 2-(4′-chloro-[1,1′-biphenyl]-4-ylsulfonamido)-5-(phenethylthio)benzoic acid] |

same assay, conditions: binding affinity to Mcl-1

| Ki [nM] | SMILES |
| --- | --- |
| 31 | O=C(O)c1cc(SCCc2ccccc2)ccc1NS(=O)(=O)c1ccc(-c2ccc(Cl)cc2)cc1 [Compound 380, 2-(4′-chloro-[1,1′-biphenyl]-4-ylsulfonamido)-5-(phenethylthio)benzoic acid] |
| 27 ± 5 | O=C(O)c1cc(-c2ccc(COc3cccc4ccccc34)cc2)ccc1NS(=O)(=O)c1ccc2ccccc2c1 [Compound 475, 4′-((naphthalen-1-yloxy)methyl)-4-(naphthalene-2-sulfonamido)-[1,1′-biphenyl]-3-carboxylic acid] |

same assay, conditions: relative to 382

| improvement in comparison with 382 [fold] | SMILES |
| --- | --- |
| 6 | O=C(O)c1cc(-c2ccc(COc3cccc4ccccc34)cc2)ccc1NS(=O)(=O)c1ccc2ccccc2c1 [Compound 475, 4′-((naphthalen-1-yloxy)methyl)-4-(naphthalene-2-sulfonamido)-[1,1′-biphenyl]-3-carboxylic acid] |
